From paper PMC4569013, “Massive Bioaccumulation and Self‐Assembly of Phenazine Compounds in Live Cells” (Advanced Science, 2015)

Legend:
[1] = test system: RAW264.7 macrophages; experiment: Cell accumulation experiment, transmitted light microscopy of cellular staining pattern; assay type: cell-based; conditions: for Inferred uptake: inferred from staining pattern after 72 hour incubation; for Observed cellular staining pattern (Notes): live cells, 72 hour incubation, 5 × 10^−6 M (2.5 × 10^−6 M for I); for Staining in fixed cells: methanol-fixed cells incubated 72 h with compound (control); for Cellular staining relative to clofazimine: live macrophages, 72 h
Method: Cell Accumulation Experiments and Transmitted Light Microscopic Examination: […] After a 24 h incubation (37 °C, 5% CO2), cells were incubated with solution of clofazmine or its chemical derivatives (300 μL of 5 × 10^−6 m concentration; measured cell viability ranging from 85% to 97% for all compounds tested at this concentration; Figure 1) in DMEM (no phenol red; plus 1 × 10^−3 M sodium pyruvate and 5% FBS). For Compound “I,” 2.5 × 10^−6 M of compound solution in media was used for the RAW 264.7 macrophages incubation because of lower cell viability at higher concentrations (IC50 = (3.95 ± 0.11) × 10^−6 M). A solution of clofazmine or other chemical derivatives was made by a diluting stock solutions (2.5 × 10^−3 M in DMSO; 10 × 10^−3 M stock in DMSO were stored at −80 °C for further use) into DMEM with 5% FBS. […] The extracellular concentration of each compound in each well was maintained by daily replacement of the compound‐containing media. After 72 h of incubation with clofazmine or its derivatives, compound‐containing media were removed and cells were washed twice with media. Live cells in the chambered glasses were examined under inverted transmitted light microscopy (Nikon Eclipse Ti microscope) with a 40× objective and color camera. As a control experiment, fixed cells were also microscopically examined after incubation with the compounds. Cells were seeded on the chambered cover glasses at the density of 1.5 × 10^4 cells cm^−2 (RAW264.7 macrophages) or 2.5 × 10^4 cells cm^−2 (MDCK epithelial cells). After an overnight incubation (37 °C, 5% CO2), media was removed from the wells and cold methanol (−20 °C) was added to each well. After 30 s, remaining methanol was removed by washing with media with 5% FBS. Fixed cells were incubated (37 °C, 5% CO2) with clofazmine or derivatives (300 μL of 5 × 10^−6 M; 2.5 × 10^−6 M for I) in media with 5% FBS. After 72 h, fixed RAW264.7 or MDCK cells were washed with media and examined using the same transmitted microscopy conditions as the live cells.

[2] = test system: RAW264.7 macrophages; experiment: Linear diattenuation anisotropy microscopy (LC-PolScope) of intracellular inclusions; assay type: cell-based; conditions: 72 h, compared with clofazimine
Method: (§1) The optical design was built on a Nikon Eclipse Ti microscope equipped with the liquid crystal universal compensator consisting of a linear polarizer and a pair of liquid crystal devices. The LC compensator was part of the transillumination path and was used to illuminate the specimen with monochromatic, linearly polarized light of varying polarization orientation. There was no polarization analyzer present in the imaging path. Quantitative intensity images were recorded by a charge‐coupled device camera and a desktop computer calculated the average transmittance, the differential transmittance and the polarization orientation leading to maximum transmittance for each optically resolved picture element (pixel). Acquisition and processing steps were controlled using OpenPolScope plugins for the open source imaging programs ImageJ and Micro‐Manager (MMStudio version 1.4.15). With the combination of hardware and software, polarized light images were acquired at high sensitivity and high spatial resolution for measuring linear diattenuation.
(§2) Linear Diattenuation Microscopy Data Acquisition and Analysis: After RAW264.7 macrophages or MDCK epithelial cells were incubated with the compound in the chambered cover glasses for 72 h, at the same time of performing transmitted microscopic examination, cell specimens were examined under linear diattenuation microscopy using the Nikon Eclipse Ti microscope with 40×/0.75 NA objective and monochromatic light of two different center wavelengths, 546 and 623 nm (passband 30 nm). In the OpenPolScope software, Pol‐Acquisition and Pol‐Analyzer plugins (version 2.0) were used to capture, process, and analyze the attenuation images. Before imaging the samples, the setup was calibrated using a specially prepared slide featuring four small pieces of linear polarization filters. The transmission axes of the filters were oriented in steps of 45° providing a means to calibrate the LC universal compensator settings. After the calibration, a sample slide was inserted and first a sequence of polarized light images of a clear, fully transmitting sample area was recorded, followed by an image sequence featuring the cells under investigation. The images of the clear area were used to determine instrument factors which were needed for computing the average and the polarization dependent loss in transmittance in cellular components visible in the second image.10
(§3) Linear diattenuation is a material property that can occur in materials such as crystals, in which the light absorbing molecules are arranged with a preferred orientation. The molecular alignment creates principal axes in the material denoting polarization directions for which light is maximally and minimally transmitted. Diattenuation is the difference between maximal (T max) and minimal (T min) transmittance, divided by their sum (Equation (1)): (1) Diattenuation=Tmax‐Tmin/Tmax+Tmin
(§4) To simultaneously measure the attenuation of many crystals with arbitrary orientations, we developed algorithms based on four specimen images, each recorded using light of a different polarization orientation: 0°, 45°, 90°, and 135°.10 The four raw images were used to calculate the average and differential transmittance and the orientation of maximum transmittance in every resolved image pixel. To isolate and analyze quantitative data of the objects (crystals), the anisotropy or maximum transmittance axis orientation image file opened in ImageJ was inverted (Ctrl + Shift + I) and thresholded using ImageJ's default automatic method (“Binary” → “Convert to Mask”). By using the ImageJ's algorithm, “Analyze Particles,” data of anisotropy or maximum transmittance axis orientation of objects in images could be obtained automatically. Diattenuation ratios were calculated by dividing anisotropy at 623 nm by that at 546 nm.

[3] = test system: MDCK epithelial cells; experiment: as above; assay type: cell-based, Canine; conditions: 72 h, compared with clofazimine
Method: as §1, §2, §3, §4

[4] = test system: RAW264.7 macrophages; experiment: Cell associated mass measurements (bioaccumulation, pmole/cell); assay type: cell-based; conditions: 72 h incubation, normalized by number of cells
Method: Cell Associated Mass Measurements: […] After an overnight incubation (37 °C, 5% CO2), cells were incubated with 100 μL of the media (DMEM with 5% FBS) containing 5 × 10^−6 M clofazmine or its chemical derivatives (2.5 × 10^−6 M of Compound “I”). Media containing each compound was replaced every day during the 72 h incubation. After the incubation, media was removed and cells were washed with Hank's balanced salt solution (HBSS) buffer (No. 14025; Invitrogen) twice. RAW264.7 macrophage cells in buffer were scraped and MDCK epithelial cells were exposed to Trypsin‐EDTA solution for detachment from the plates for cell number counting and quantification of cell‐associated masses. After centrifugation (650 × g), supernatant was removed and cell pellets were resuspended in 0.1 M citric acid/0.1 M trisodium citrate buffer (pH 5) for cell counting as previously reported.7 Equal numbers of cells in 100 μL in buffer were transferred to 96 well plates and 100 μL of detergent (ATCC, 30‐1010K) was added into wells for cell lysis. Chemical absorbance from each well was measured by the UV–vis microplate reader (Synergy 2, BioTek Instruments, Winooski, VT) at 490 nm wavelength and cell‐associated mass of each compound was calculated by a standard curve generated separately using the same media and presented as pmole/cell by normalizing the amount of chemical in each cell population sample by the number of cells in each sample.

Structure (SMILES) | Inferred uptake [1] | Accumulation in macrophages [4] | Observed cellular staining pattern (Notes) [1] | Staining in fixed cells [1] | Cellular staining relative to clofazimine [1] | Diattenuation anisotropy of intracellular inclusions [2] | Diattenuation anisotropy of intracellular inclusions [3]
CCCCN=c1cc2n(-c3ccc(Cl)cc3)c3ccccc3nc-2cc1Nc1ccc(Cl)cc1 [K] | Slow | – | Very faint, brown perinuclear staining pattern | – | – | – | –
NC(=O)CCN=c1cc2n(-c3ccc(Cl)cc3)c3ccccc3nc-2cc1Nc1ccc(Cl)cc1 [L] | Good | – | Small brown inclusions present in live cells | absent in fixed cells | – | – | –
CC(C)N=c1cc2n(-c3ccc(F)cc3)c3ccccc3nc-2cc1Nc1ccc(F)cc1 [E] | Slow | – | Very faint, brown perinuclear staining pattern observed across all cells | – | – | – | –
COCCN=c1cc2n(-c3ccc(Cl)cc3)c3ccccc3nc-2cc1Nc1ccc(Cl)cc1 [H] | Moderate | – | Brown staining associated with vesicles/membranes | Fixed cells also exhibited staining | comparable in morphology and intensity to those of clofazimine | – | –
CC(C)N=c1cc2n(-c3ccc(-c4ccccc4)cc3)c3ccccc3nc-2cc1Nc1ccc(-c2ccccc2)cc1 [C] | Slow | – | Very faint, brown perinuclear staining pattern observed across all cells | – | – | – | –
CC(C)N=c1cc2n(-c3ccc(C#N)cc3)c3ccccc3nc-2cc1Nc1ccc(C#N)cc1 [B] | Very slow | – | formed large extracellular crystals. No intracellular staining pattern | – | – | – | –
COc1ccc(Nc2cc3nc4ccccc4n(-c4ccc(OC)cc4)c-3cc2=NC(C)C)cc1 [A] | Slow | – | did not exhibit any intracellular staining pattern | – | – | – | –
CC(C)N=c1cc2n(-c3ccc(C(F)(F)F)cc3)c3ccccc3nc-2cc1Nc1ccc(C(F)(F)F)cc1 [D] | Very slow | – | No intracellular staining pattern observed. Small percentage of cells with orange crystals | – | – | – | –

More lines, main results first:

Inferred uptake [1] | Accumulation in macrophages [4] | Structure (SMILES) | Observed cellular staining pattern (Notes) [1] | Staining in fixed cells [1] | Cellular staining relative to clofazimine [1] | Diattenuation anisotropy of intracellular inclusions [2] | Diattenuation anisotropy of intracellular inclusions [3]
Good | – | Oc1ccc(CCN=c2cc3n(-c4ccc(Cl)cc4)c4ccccc4nc-3cc2Nc2ccc(Cl)cc2)cc1O [O] | Most of cells have shown faint orange colored vesicles | Staining not observed in fixed cells | – | – | –
Good | – | COc1ccc2[nH]cc(CCN=c3cc4n(-c5ccc(Cl)cc5)c5ccccc5nc-4cc3Nc3ccc(Cl)cc3)c2c1 [M] | Orange-brown or purple inclusions present in live cells | Staining not observed in fixed cells | comparable in morphology and intensity to those of clofazimine | – | –
Excellent | greatest accumulation | Oc1ccc(CCN=c2cc3n(-c4ccc(Cl)cc4)c4ccccc4nc-3cc2Nc2ccc(Cl)cc2)cc1 [Q] | Purple-black dense cytoplasmic inclusions in live cells | absent in fixed cells | more prominent staining patterns | higher diattenuation anisotropy | higher diattenuation anisotropy
Good | greatest accumulation | CC(C)[C@H](CO)N=c1cc2n(-c3ccc(Cl)cc3)c3ccccc3nc-2cc1Nc1ccc(Cl)cc1 [W] | Brown crystal-like inclusions are shown in live cells | absent in fixed cells | prominent cellular staining | even higher anisotropy | only in macrophages
Good | greatest accumulation | CC(C)C(CO)N=c1cc2n(-c3ccc(Cl)cc3)c3ccccc3nc-2cc1Nc1ccc(Cl)cc1 (stereo not shown) [V] | Brown crystal-like inclusions appeared in live cells | Staining not observed in fixed cells | prominent cellular staining | even higher anisotropy | only in macrophages
Moderate | – | Clc1ccc(Nc2cc3nc4ccccc4n(-c4ccc(Cl)cc4)c-3cc2=NCCN2CCOCC2)cc1 [N] | Faint orange staining pattern associated with perinuclear cytoplasmic vesicles | Staining not observed in fixed cells | – | – | –
Good | – | C[C@H](N=c1cc2n(-c3ccc(Cl)cc3)c3ccccc3nc-2cc1Nc1ccc(Cl)cc1)c1ccccc1 [R] | Orange-brown staining pattern associated with perinuclear cytoplasmic vesicles in live cells | No staining found in Fixed cells | – | did not yield a measurable, diattenuation anisotropy signal | did not yield a measurable, diattenuation anisotropy signal
